Experimental data published in ChEMBL document CHEMBL4483862, “Open-source discovery of chemical leads for next-generation chemoprotective antimalarials” (2018).
pIC50: −log10 of the molar value.

Tested on: Plasmodium berghei
Assay: Luciferase/luciferin-expressing antifolate-resistant parasites were used to infect a culture of HepG2 cells that were pre-incubated with compounds. Infected hepatocytes emit light due to the luciferase reaction. Assay results are presented as the percent inhibition of light emission compared to control. […]
Type: functional
Conditions: sporozoite; for IC90: read-out: LUCIFERASE INFECTION ASSAY - IC90

Cc1cc(O)nc(N/N=C/c2cc(C)n(CC(F)(F)F)c2C)n1
pIC50 (HEPG2TOX_HILL_SLOPE 2.49, HEPG2TOX_R_SQUARED 0.474, PBLUC_HILL_SLOPE 1.68, PBLUC_R_SQUARED 0.728, read-out: LUCIFERASE INFECTION ASSAY - IC50): 5.47
IC90: > 10 µM

C/C(=N\NC(N)=S)c1ccc(CC(C)C)cc1
pIC50 (HEPG2TOX_HILL_SLOPE 2.45, HEPG2TOX_R_SQUARED 0.895, PBLUC_HILL_SLOPE 1.49, PBLUC_R_SQUARED 0.577, read-out: LUCIFERASE INFECTION ASSAY - IC50): 5.38
IC90: > 13.2 µM

COc1ccc(-c2ccnc3n[nH]c(-c4ccccc4)c23)cc1OC
pIC50 (HEPG2TOX_HILL_SLOPE 2.45, HEPG2TOX_R_SQUARED 0.911, PBLUC_HILL_SLOPE 2.73, PBLUC_R_SQUARED 0.663, read-out: LUCIFERASE INFECTION ASSAY - IC50): 5.83
IC90: 3.3 µM

Cc1cc2ccccn2c1C(=O)c1ccc(-c2ccccc2)cc1
pIC50 (HEPG2TOX_HILL_SLOPE 2.45, HEPG2TOX_R_SQUARED 0.945, PBLUC_HILL_SLOPE 19.6, PBLUC_R_SQUARED 0.427, read-out: LUCIFERASE INFECTION ASSAY - IC50): 5.47
IC90: 3.77 µM

CCCCc1ccc2nc(NC(=O)c3cnc(C)cn3)sc2c1
pIC50 (HEPG2TOX_HILL_SLOPE 2.45, HEPG2TOX_R_SQUARED 0.834, PBLUC_HILL_SLOPE 1.44, PBLUC_R_SQUARED 0.354, read-out: LUCIFERASE INFECTION ASSAY - IC50): < 5.00
IC90: > 10 µM

COc1ccc(OC)c(-c2cs/c(=N\c3cccc(C)c3C)n2/N=C/c2ccc(C#N)cc2)c1
pIC50 (HEPG2TOX_HILL_SLOPE 2.44, HEPG2TOX_R_SQUARED 0.954, PBLUC_HILL_SLOPE 4.56, PBLUC_R_SQUARED 0.492, read-out: LUCIFERASE INFECTION ASSAY - IC50): 5.20
IC90: > 10 µM

CCN(CC)S(=O)(=O)c1ccc(C)c(NC(=O)CCc2ncc(-c3ccc(C)cc3)o2)c1
pIC50 (HEPG2TOX_HILL_SLOPE 2.43, HEPG2TOX_R_SQUARED 0.985, PBLUC_HILL_SLOPE 1.82, PBLUC_R_SQUARED 0.587, read-out: LUCIFERASE INFECTION ASSAY - IC50): 5.59
IC90: 8.55 µM

Nc1ccc(OC2=C(Cl)C(=O)c3ccccc3C2=O)cc1
pIC50 (HEPG2TOX_HILL_SLOPE 2.46, HEPG2TOX_R_SQUARED 0.976, PBLUC_HILL_SLOPE 10.6, PBLUC_R_SQUARED 0.396, read-out: LUCIFERASE INFECTION ASSAY - IC50): 5.32
IC90: 5.91 µM

c1csc(-c2cn3c(-c4ccc5ncccc5c4)cnc3cn2)c1
pIC50 (HEPG2TOX_HILL_SLOPE 2.44, HEPG2TOX_R_SQUARED 0.922, PBLUC_HILL_SLOPE 1.55, PBLUC_R_SQUARED 0.705, read-out: LUCIFERASE INFECTION ASSAY - IC50): 5.66
IC90: 8.95 µM

CCOc1ccc2c(c1)O/C(=C\c1cc(Cl)cc3c1OCOC3)C2=O
pIC50 (HEPG2TOX_HILL_SLOPE 2.45, HEPG2TOX_R_SQUARED 0.948, PBLUC_HILL_SLOPE 1.42, PBLUC_R_SQUARED 0.8, read-out: LUCIFERASE INFECTION ASSAY - IC50): 5.86
IC90: 6.53 µM

C/C(=N\NC(=S)Nc1cccc(Cl)c1C)c1cccc(C(F)(F)F)c1
pIC50 (HEPG2TOX_HILL_SLOPE 2.50, 1.90, HEPG2TOX_R_SQUARED 0.489, 0.932, PBLUC_HILL_SLOPE 2.58, PBLUC_R_SQUARED 0.215, read-out: LUCIFERASE INFECTION ASSAY - IC50): 5.14
IC90: > 10 µM

CC(=O)Nc1ccc(-c2cnc3ccc(-c4cccc(Oc5ccccc5)c4)nn23)cc1
pIC50 (HEPG2TOX_HILL_SLOPE 2.48, HEPG2TOX_R_SQUARED 0.914, PBLUC_HILL_SLOPE 2.88, PBLUC_R_SQUARED 0.663, read-out: LUCIFERASE INFECTION ASSAY - IC50): 5.81
IC90: 3.35 µM

Cc1ccc(CNC(=O)CN2CCCN(Cc3ccc(Cl)cc3)CC2)cc1F
pIC50 (HEPG2TOX_HILL_SLOPE 2.47, HEPG2TOX_R_SQUARED 0.19, PBLUC_HILL_SLOPE 1.42, PBLUC_R_SQUARED 0.29, read-out: LUCIFERASE INFECTION ASSAY - IC50): 5.32
IC90: > 10 µM

O=[N+]([O-])c1ccc(Oc2cncc(Cl)c2)c(-c2nnc(-c3ccc(C(F)(F)F)cc3)o2)c1
pIC50 (HEPG2TOX_HILL_SLOPE 2.45, HEPG2TOX_R_SQUARED 0.932, PBLUC_HILL_SLOPE 14.3, PBLUC_R_SQUARED 0.511, read-out: LUCIFERASE INFECTION ASSAY - IC50): 5.18
IC90: > 7.13 µM

CO[C@H]1[C@@H](O)[C@@H](C)O[C@H](O[C@H]2CC[C@]3(C)C4CC[C@]5(C)[C@@H](C6=CC(=O)OC6)CC[C@]5(O)C4CC[C@]3(O)C2)[C@@H]1O (stereo not given in full)
pIC50 (HEPG2TOX_HILL_SLOPE 2.49, HEPG2TOX_R_SQUARED 0.917, PBLUC_HILL_SLOPE 3.98, PBLUC_R_SQUARED 0.716, read-out: LUCIFERASE INFECTION ASSAY - IC50): 6.83
IC90: 0.258 µM

O=C(NC1CC1)c1csc(C(O)c2cccc(OC(F)(F)F)c2)n1 (stereo not given)
pIC50 (HEPG2TOX_HILL_SLOPE 2.47, HEPG2TOX_R_SQUARED 0.742, PBLUC_HILL_SLOPE 2.02, PBLUC_R_SQUARED 0.793, read-out: LUCIFERASE INFECTION ASSAY - IC50): 6.52
IC90: 0.901 µM

CC1=C(C#N)C(/C=N/N(C)c2ncc(C(F)(F)F)cc2Cl)CC(=O)N1 (stereo not given)
pIC50 (HEPG2TOX_HILL_SLOPE 2.47, HEPG2TOX_R_SQUARED 0.965, PBLUC_HILL_SLOPE 13.6, PBLUC_R_SQUARED 0.0536, read-out: LUCIFERASE INFECTION ASSAY - IC50): 5.49
IC90: 3.84 µM

O=S(=O)(Nc1cc(Cl)c(Cl)cc1Cl)c1cc(C(F)(F)F)cc(C(F)(F)F)c1
pIC50 (HEPG2TOX_HILL_SLOPE 2.48, HEPG2TOX_R_SQUARED 0.974, PBLUC_HILL_SLOPE 1.87, PBLUC_R_SQUARED 0.724, read-out: LUCIFERASE INFECTION ASSAY - IC50): 6.21
IC90: 1.98 µM

COc1cc(-c2ccc3ncc(-c4cccs4)n3n2)cc(OC)c1OC
pIC50 (HEPG2TOX_HILL_SLOPE 2.45, HEPG2TOX_R_SQUARED 0.958, PBLUC_HILL_SLOPE 3.17, PBLUC_R_SQUARED 0.64, read-out: LUCIFERASE INFECTION ASSAY - IC50): 5.69
IC90: 4.08 µM

O=C(CSc1ccccc1)Nc1nc2ccccn2c1C(=O)NC1CCCCC1
pIC50 (HEPG2TOX_HILL_SLOPE 2.44, HEPG2TOX_R_SQUARED 0.782, PBLUC_HILL_SLOPE 1.51, PBLUC_R_SQUARED 0.873, read-out: LUCIFERASE INFECTION ASSAY - IC50): 5.55
IC90: > 8.08 µM

CN(C)C(=O)c1cccc(-c2cn3c(-c4ccc5c(ccn5C)c4)cnc3cn2)c1
pIC50 (HEPG2TOX_HILL_SLOPE 2.46, HEPG2TOX_R_SQUARED 0.94, PBLUC_HILL_SLOPE 1.63, PBLUC_R_SQUARED 0.793, read-out: LUCIFERASE INFECTION ASSAY - IC50): 5.58
IC90: > 8.34 µM

CCOC(=O)c1c(C)oc2c1cc(OS(=O)(=O)c1ccc(NC(C)=O)cc1)c1ccccc12
pIC50 (HEPG2TOX_HILL_SLOPE 2.44, HEPG2TOX_R_SQUARED 0.99, PBLUC_HILL_SLOPE 3.26, PBLUC_R_SQUARED 0.643, read-out: LUCIFERASE INFECTION ASSAY - IC50): 5.30
IC90: 9.89 µM

Nc1ccc(-c2cnc3ccc(Cc4ccc(F)cc4)nn23)cn1
pIC50 (HEPG2TOX_HILL_SLOPE 2.46, HEPG2TOX_R_SQUARED 0.531, PBLUC_HILL_SLOPE 14.2, PBLUC_R_SQUARED 0.359, read-out: LUCIFERASE INFECTION ASSAY - IC50): 6.41
IC90: 0.455 µM

Cc1ccc(Oc2ccc(OCC(=O)NCCNc3ccc4ccccc4c3)cc2)cc1
pIC50 (HEPG2TOX_HILL_SLOPE 2.47, HEPG2TOX_R_SQUARED 0.879, PBLUC_HILL_SLOPE 3.02, PBLUC_R_SQUARED 0.699, read-out: LUCIFERASE INFECTION ASSAY - IC50): 5.49
IC90: 6.61 µM

Cc1nc(C2CC2)ncc1-c1nc(=Nc2ccccc2)s[nH]1
pIC50 (HEPG2TOX_HILL_SLOPE 2.45, HEPG2TOX_R_SQUARED 0.884, PBLUC_HILL_SLOPE 3.42, PBLUC_R_SQUARED 0.283, read-out: LUCIFERASE INFECTION ASSAY - IC50): 5.14
IC90: > 10.7 µM

OCc1ccc(-c2cnc3cnc(-c4ccccc4Cl)cn23)cc1
pIC50 (HEPG2TOX_HILL_SLOPE 2.47, HEPG2TOX_R_SQUARED 0.702, PBLUC_HILL_SLOPE 3.47, PBLUC_R_SQUARED 0.368, read-out: LUCIFERASE INFECTION ASSAY - IC50): 5.32
IC90: 9.11 µM

CC(=O)c1cccc(-c2ccc3ncc(-c4cccc(C(F)(F)F)c4)n3n2)c1
pIC50 (HEPG2TOX_HILL_SLOPE 2.43, HEPG2TOX_R_SQUARED 0.95, PBLUC_HILL_SLOPE 15.4, PBLUC_R_SQUARED 0.713, read-out: LUCIFERASE INFECTION ASSAY - IC50): 6.45
IC90: 0.407 µM

COc1ccc(CCC(=O)N(c2nc(-c3ccc(C)cc3)cs2)c2cc(C)ccc2C)cc1OC
pIC50 (HEPG2TOX_HILL_SLOPE 2.48, HEPG2TOX_R_SQUARED 0.955, PBLUC_HILL_SLOPE 14.1, PBLUC_R_SQUARED 0.228, read-out: LUCIFERASE INFECTION ASSAY - IC50): 5.44
IC90: 4.21 µM

Cc1onc(-c2ccccc2)c1-c1ccnc(-c2ccc(Cl)cc2)n1
pIC50 (HEPG2TOX_HILL_SLOPE 2.45, HEPG2TOX_R_SQUARED 0.972, PBLUC_HILL_SLOPE 2.42, PBLUC_R_SQUARED 0.716, read-out: LUCIFERASE INFECTION ASSAY - IC50): 5.74
IC90: 4.54 µM

O=C(Nc1ccc(OCc2ccccc2)cc1)c1csc(C(O)c2cccc(Cl)c2)n1 (stereo not given)
pIC50 (HEPG2TOX_HILL_SLOPE 2.48, HEPG2TOX_R_SQUARED 0.94, PBLUC_HILL_SLOPE 11.3, PBLUC_R_SQUARED 0.644, read-out: LUCIFERASE INFECTION ASSAY - IC50): 5.51
IC90: 3.73 µM
